The record followed here is patent US20260217735A1, “HETEROCYCLES AND USES THEREOF” (Kumquat Biosciences Inc., priority 2023, published 2026).

For one experiment, the target named is T1, KRAS G12D (Homo sapiens, UniProt P01116, G12D).
T1 construct: made in house; host or cells: E. coli, e.g. BL21 (DE3)
Put plainly: HTRF assay, KRAS G12D interaction with SOS1. It counts as biochemical. The note with it: bins <500 nM / 500 nM to 1000 nM, read-out: Inhibition of KRAS G12D (IC50).

In the next experiment the target is T2, KRAS WT (Homo sapiens, UniProt P01116).
T2 construct: made in house; host or cells: E. coli, e.g. BL21 (DE3)
T2 sequence (P01116 1-188 isoform P01116-2): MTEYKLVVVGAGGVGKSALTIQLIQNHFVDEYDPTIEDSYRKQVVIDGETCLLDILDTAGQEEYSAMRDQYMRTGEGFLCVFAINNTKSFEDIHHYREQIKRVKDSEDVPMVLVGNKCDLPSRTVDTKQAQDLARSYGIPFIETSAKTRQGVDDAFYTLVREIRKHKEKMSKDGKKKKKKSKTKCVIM
Kind of experiment: HTRF assay, wildtype KRAS interaction with SOS1. The class given is biochemical. The note with it: bins <500 nM / 500 nM to 1000 nM, read-out: Inhibition of KRAS WT (IC50). (In TR-FRET formats the signal depends on donor and acceptor labels being close together.)

The next experiment addresses T3, KRAS G12V (Homo sapiens, UniProt P01116, G12V).
T3 construct: made in house; host or cells: E. coli, e.g. BL21 (DE3)
Put plainly: HTRF assay, KRAS G12V interaction with SOS1. It counts as biochemical. The note with it: bins <500 nM / 500 nM to 1000 nM, read-out: Inhibition of KRAS G12V (IC50).

The next experiment addresses T4, KRAS G12S (Homo sapiens, UniProt P01116, G12S).
T4 construct: made in house; host or cells: E. coli, e.g. BL21 (DE3)
Kind of experiment: HTRF assay, KRAS G12S interaction with SOS1. The note with it: bins <500 nM / 500 nM to 1000 nM, read-out: Inhibition of KRAS G12S (IC50). The class given is biochemical.

The test system of another experiment is MiaPaca2 cells. Kind of experiment: Ras cellular assay, growth of cells with K-Ras G12C mutation. The note with it: Homo sapiens, MIA PaCa-2; cell proliferation assay; bins ≤500 nM / >500 nM; read-out: Inhibition of MiaPaca2 Cells (IC50). The class given is cell-based. An outline of the steps:
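Anchorage-independent growth: G12C-mutant MIA PaCa-2 plated in soft agar, time-zero plate read the next day when compound was dosed (final DMSO 0.3%). After growth to day 10, MTS-type absorbance at 490/660 nm relative to time zero gave IC50 via four-parameter fitting.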

T4 sequence (P01116 1-188 isoform P01116-2 G12S): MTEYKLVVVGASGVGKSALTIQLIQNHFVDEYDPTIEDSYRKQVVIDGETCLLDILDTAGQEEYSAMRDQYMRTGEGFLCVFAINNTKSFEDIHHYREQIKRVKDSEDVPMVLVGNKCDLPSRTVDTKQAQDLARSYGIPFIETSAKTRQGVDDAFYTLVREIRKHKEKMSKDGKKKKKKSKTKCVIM
T1 sequence (P01116 1-188 isoform P01116-2 G12D): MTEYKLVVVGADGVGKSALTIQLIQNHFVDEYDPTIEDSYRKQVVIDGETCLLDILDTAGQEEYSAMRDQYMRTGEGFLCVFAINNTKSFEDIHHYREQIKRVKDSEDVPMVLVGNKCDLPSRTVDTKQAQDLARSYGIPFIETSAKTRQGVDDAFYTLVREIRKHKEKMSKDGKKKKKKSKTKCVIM
T3 sequence (P01116 1-188 isoform P01116-2 G12V): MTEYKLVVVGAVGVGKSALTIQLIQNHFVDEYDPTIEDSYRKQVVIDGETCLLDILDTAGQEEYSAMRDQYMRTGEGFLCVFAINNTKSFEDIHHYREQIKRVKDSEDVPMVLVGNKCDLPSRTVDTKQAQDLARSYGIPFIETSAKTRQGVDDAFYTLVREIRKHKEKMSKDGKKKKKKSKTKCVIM

For the compound `CCN(c1nc(OC[C@@]23CCCN2C[C@H](F)C3)nc2c(F)c(-c3ccc(F)c4sc(N)c(C#N)c34)c(Cl)cc12)[C@@H]1CCN(C(=O)n2ccnc2Cl)[C@@H]1C` [Compound 186, 2-amino-4-(6-chloro-4-(((2R,3R)-1-(2-chloro-1H-imidazole-1-carbonyl)-2-methylpyrrolidin-3-yl)(ethyl)amino)-8-fluoro-2-(((2R,7aS)-2-fluorotetrahydro-1H-pyrrolizin-7a(5H)-yl)methoxy)quinazolin-7-yl)-7-fluorobenzo[b]thiophene-3-carbonitrile], the IC50 was below 500 nM on KRAS G12D; below 500 nM at KRAS WT; below 500 nM at KRAS G12V; below 500 nM on KRAS G12S; at most 500 nM in the experiment on MiaPaca2 cells.

`CC1C(N(C)c2nc(OC[C@@]34CCCN3C[C@H](F)C4)nc3c(F)c(-c4ccc(F)c5sc(N)c(C#N)c45)c(Cl)cc23)CCCN1C(=O)n1ccnc1` (stereo partly drawn) [Compound 187, 4-(4-((1-(1H-imidazole-1-carbonyl)-2-methylpiperidin-3-yl)(methyl)amino)-6-chloro-8-fluoro-2-(((2R,7aS)-2-fluorotetrahydro-1H-pyrrolizin-7a(5H)-yl)methoxy)quinazolin-7-yl)-2-amino-7-fluorobenzo[b]thiophene-3-carbonitrile]: the 50% inhibitory concentration (IC50) on KRAS G12D was below 500 nM; at KRAS WT, below 500 nM; at KRAS G12V it was below 500 nM; at KRAS G12S, below 500 nM; in the experiment on MiaPaca2 cells, at most 500 nM.

On to `CCN(c1nc(OC[C@@]23CCCN2C[C@H](F)C3)nc2c(F)c(-c3ccc(F)c4sc(N)c(C#N)c34)c(Cl)cc12)[C@@H]1CCN(C(=O)n2ccnc2C#N)[C@@H]1C` [Compound 188, 1-((2R,3R)-3-((7-(2-amino-3-cyano-7-fluorobenzo[b]thiophen-4-yl)-6-chloro-8-fluoro-2-(((2R,7aS)-2-fluorotetrahydro-1H-pyrrolizin-7a(5H)-yl)methoxy)quinazolin-4-yl)(ethyl)amino)-2-methylpyrrolidine-1-carbonyl)-1H-imidazole-2-carbonitrile], for which the IC50 at KRAS G12D is below 500 nM; at KRAS WT, below 500 nM; on KRAS G12V it was below 500 nM; at KRAS G12S it was below 500 nM; in the experiment with MiaPaca2 cells it was at most 500 nM.

Regarding `Cc1nc(C#N)cn1C(=O)N1CC2CCN(c3nc(OC[C@@]45CCCN4C[C@H](F)C5)nc4c(F)c(-c5ccc(F)c6sc(N)c(C#N)c56)c(Cl)cc34)C2C1` (stereo partly drawn) [Compound 192, 1-(1-(7-(2-amino-3-cyano-7-fluorobenzo[b]thiophen-4-yl)-6-chloro-8-fluoro-2-(((2R,7aS)-2-fluorotetrahydro-1H-pyrrolizin-7a(5H)-yl)methoxy)quinazolin-4-yl)octahydropyrrolo[3,4-b]pyrrole-5-carbonyl)-2-methyl-1H-imidazole-4-carbonitrile], the IC50 on KRAS G12D was below 500 nM; at KRAS WT it was below 500 nM; on KRAS G12V, below 500 nM; on KRAS G12S, below 500 nM; with MiaPaca2 cells, at most 500 nM.

Consider `C[C@@H]1[C@H](N(C)c2nc(OC[C@@]34CCCN3C[C@H](F)C4)nc3c(F)c(-c4ccc(F)c5sc(N)c(C#N)c45)c(Cl)cc23)CCN1C(=O)n1ccnc1C(F)(F)F` [Compound 194, 2-amino-4-(6-chloro-8-fluoro-2-(((2R,7aS)-2-fluorotetrahydro-1H-pyrrolizin-7a(5H)-yl)methoxy)-4-(methyl((2R,3R)-2-methyl-1-(2-(trifluoromethyl)-1H-imidazole-1-carbonyl)pyrrolidin-3-yl)amino)quinazolin-7-yl)-7-fluorobenzo[b]thiophene-3-carbonitrile], for which the half-maximal inhibitory concentration (IC50) at KRAS G12D is below 500 nM; on KRAS WT, below 500 nM; on KRAS G12V it was below 500 nM; at KRAS G12S, below 500 nM; with MiaPaca2 cells, at most 500 nM.

As to `CCN(c1nc(OC[C@@]23CCCN2C[C@H](F)C3)nc2c(F)c(-c3cccc4sc(N)c(C#N)c34)c(Cl)cc12)[C@@H]1CCN(C(=O)n2cc(C)nc2C)[C@@H]1C` [Compound 195, 2-amino-4-(6-chloro-4-(((2R,3R)-1-(2,4-dimethyl-1H-imidazole-1-carbonyl)-2-methylpyrrolidin-3-yl)(ethyl)amino)-8-fluoro-2-(((2R,7aS)-2-fluorotetrahydro-1H-pyrrolizin-7a(5H)-yl)methoxy)quinazolin-7-yl)benzo[b]thiophene-3-carbonitrile], the IC50 at KRAS G12D was below 500 nM; on KRAS WT it was below 500 nM; on KRAS G12V, below 500 nM; at KRAS G12S, below 500 nM; in the experiment on MiaPaca2 cells, at most 500 nM.

In the case of `CCN(c1nc(OC[C@@]23CCCN2C[C@H](F)C3)nc2c(F)c(-c3cc(N)c(F)c(C)c3C(F)(F)F)ncc12)[C@@H]1CCN(C(=O)n2cc(C)nc2C)[C@@H]1C` [Compound 196, ((2R,3R)-3-((7-(5-amino-4-fluoro-3-methyl-2-(trifluoromethyl)phenyl)-8-fluoro-2-(((2R,7aS)-2-fluorotetrahydro-1H-pyrrolizin-7a(5H)-yl)methoxy)pyrido[4,3-d]pyrimidin-4-yl)(ethyl)amino)-2-methylpyrrolidin-1-yl)(2,4-dimethyl-1H-imidazol-1-yl)methanone], the IC50 on KRAS G12D was 500 to 1000 nM; at KRAS WT, below 500 nM; on KRAS G12V, below 500 nM; at KRAS G12S, below 500 nM; in the experiment with MiaPaca2 cells, at most 500 nM.

Turning to `CC[C@@H]1[C@H](N(C)c2nc(OC[C@@]34CCCN3C[C@H](F)C4)nc3c(F)c(-c4ccc(F)c5sc(N)c(C#N)c45)c(Cl)cc23)CCN1C(=O)n1ccnc1` [Compound 198, 2-amino-4-(6-chloro-4-(((2R,3R)-2-ethyl-1-(1H-imidazole-1-carbonyl)pyrrolidin-3-yl)(methyl)amino)-8-fluoro-2-(((2R,7aS)-2-fluorotetrahydro-1H-pyrrolizin-7a(5H)-yl)methoxy)quinazolin-7-yl)-7-fluorobenzo[b]thiophene-3-carbonitrile], the concentration for half-maximal inhibition (IC50) on KRAS G12D was below 500 nM; at KRAS WT, below 500 nM; at KRAS G12V, below 500 nM; at KRAS G12S, below 500 nM; in the experiment with MiaPaca2 cells, at most 500 nM.

As to `C[C@@H]1[C@H](N(C)c2nc(OC[C@@]34CCCN3C[C@H](F)C4)nc3c(F)c(-c4ccc(F)c5sc(N)c(C#N)c45)c(Cl)cc23)CCN1C(=O)n1cnc(C#N)c1` [Compound 199, 1-((2R,3R)-3-((7-(2-amino-3-cyano-7-fluorobenzo[b]thiophen-4-yl)-6-chloro-8-fluoro-2-(((2R,7aS)-2-fluorotetrahydro-1H-pyrrolizin-7a(5H)-yl)methoxy)quinazolin-4-yl)(methyl)amino)-2-methylpyrrolidine-1-carbonyl)-1H-imidazole-4-carbonitrile], the IC50 was below 500 nM at KRAS G12D; below 500 nM at KRAS WT; below 500 nM on KRAS G12V; below 500 nM on KRAS G12S; at most 500 nM in the experiment on MiaPaca2 cells.

For the compound `C[C@@H]1[C@H](N(C)c2nc(OC[C@@]34CCCN3C[C@H](F)C4)nc3c(F)c(-c4ccc(F)c5sc(N)c(C#N)c45)c(C(F)(F)F)cc23)CCN1C(=O)n1ccnc1` [Compound 200, 4-(4-(((2R,3R)-1-(1H-imidazole-1-carbonyl)-2-methylpyrrolidin-3-yl)(methyl)amino)-8-fluoro-2-(((2R,7aS)-2-fluorotetrahydro-1H-pyrrolizin-7a(5H)-yl)methoxy)-6-(trifluoromethyl)quinazolin-7-yl)-2-amino-7-fluorobenzo[b]thiophene-3-carbonitrile], the IC50 at KRAS G12D was below 500 nM; on KRAS WT it was below 500 nM; on KRAS G12V, below 500 nM; at KRAS G12S it was below 500 nM; with MiaPaca2 cells, at most 500 nM.

Regarding `C[C@@H]1[C@H](N(C)c2nc(OC[C@@]34CCCN3C[C@H](F)C4)nc3c(F)c(-c4ccc(F)c5sc(N)c(C#N)c45)c(Cl)cc23)CCN1C(=O)n1ccnc1C1CC1` [Compound 201, 2-amino-4-(6-chloro-4-(((2R,3R)-1-(2-cyclopropyl-1H-imidazole-1-carbonyl)-2-methylpyrrolidin-3-yl)(methyl)amino)-8-fluoro-2-(((2R,7aS)-2-fluorotetrahydro-1H-pyrrolizin-7a(5H)-yl)methoxy)quinazolin-7-yl)-7-fluorobenzo[b]thiophene-3-carbonitrile], the IC50 was below 500 nM on KRAS G12D; below 500 nM at KRAS WT; below 500 nM on KRAS G12V; below 500 nM on KRAS G12S; at most 500 nM in the experiment on MiaPaca2 cells.

In the case of `Cc1c(C#N)ncn1C(=O)N1C[C@]2(CC[C@H](C)N(c3nc(OC[C@@]45CCCN4C[C@H](F)C5)nc4c(F)c(-c5ccc(F)c6sc(N)c(C#N)c56)c(Cl)cc34)C2)[C@H]1C1(C)CC1` [Compound 202, 1-((1R,4R,7S)-6-(7-(2-amino-3-cyano-7-fluorobenzo[b]thiophen-4-yl)-6-chloro-8-fluoro-2-(((2R,7aS)-2-fluorotetrahydro-1H-pyrrolizin-7a(5H)-yl)methoxy)quinazolin-4-yl)-7-methyl-1-(1-methylcyclopropyl)-2,6-diazaspiro[3.5]nonane-2-carbonyl)-5-methyl-1H-imidazole-4-carbonitrile], the IC50 on KRAS G12D was below 500 nM; on KRAS WT, below 500 nM; at KRAS G12V, below 500 nM; at KRAS G12S it was below 500 nM; in the experiment on MiaPaca2 cells it was at most 500 nM.

A word on the IC50: it is the concentration that inhibits the measured activity by half.
